Assay results reported in ChEMBL document CHEMBL1156829 (Proc Natl Acad Sci U S A, 2008).

Experiments:
[1] = NOVARTIS: Cytotoxicity against human hepatocellular carcinoma cell line (Huh7); format: toxicity, cell-based, Huh-7; settings: Huh7 cells (hepatocellular carcinoma cell line)
Plasmodium falciparum [2] = test: NOVARTIS: Inhibition of Plasmodium falciparum W2 (drug-resistant) proliferation in erythrocyte-based infection assay; format: functional, organism-based; settings: Plasmodium falciparum, W2; read-out: EC50
Plasmodium falciparum [3] = test: NOVARTIS: Inhibition of Plasmodium falciparum 3D7 (drug-susceptible) proliferation in erythrocyte-based infection assay; format: functional, organism-based; settings: Plasmodium falciparum, 3D7

| SMILES | CC50 [1] [µM] | EC50 (Plasmodium falciparum [2]) [µM] | EC50 (Plasmodium falciparum [3]) [µM] |
| --- | --- | --- | --- |
| COc1ccccc1NC1=CC(=NS(=O)(=O)c2cccs2)c2ccccc2C1=O | 19.7 | 0.906 | 1.07 |
| CC1CN(C2CC(=O)N(c3ccccc3)C2=O)CC(C)O1 (configuration not stated) | > 10 | > 0.195 | 0.873 |
| N#CC(C#N)C(C(Sc1ccc([N+](=O)[O-])cc1)=C(O)c1ccccc1)c1cccs1 (configuration not stated) | 17.7 | 0.661 | 1.35 |
| CC(C)C(=O)NCCCCNc1ccnc2cc(Cl)ccc12 | > 10 | < 0.0185 | 1.6 |
| COc1nc(C)nc(NC(=O)NC(=O)c2c(OC)ccc([N+](=O)[O-])c2OC)n1 | > 10 | > 0.164 | > 0.266 |
| CC(=O)Nc1ccccc1OC(F)(F)F | > 13.2 | 0.468 | > 0.349 |
| O=C1NCCCCC1N(Cc1cccc(Oc2ccccc2)c1)C(=O)c1ccc(F)cc1 (configuration not stated) | > 10 | > 1.25 | > 1.06 |
| COc1cc(NC(C)CCCN(Cc2ccc(OC)c(OC)c2)C(=O)CC(C)CC(C)(C)C)c2ncccc2c1 (configuration not stated) | 5.89 | 0.64 | 1.04 |
| COc1ccc(CCN2C(=O)N(CCN(C)C)C(=O)C23CCN(Cc2ccc(O)cc2)CC3)cc1 | 78.5 | 0.828 | 0.221 |
| COc1ccc(CN2CCN(Cc3ccc(OC)c(C)c3C)C(CCO)C2)c(O)c1 (configuration not stated) | > 44.1 | 0.319 | 1.65 |
| COc1ccc2nc(NC(=N)N)nc(C)c2c1 | 57.5 | 0.867 | 0.712 |
| Cc1ccc(-c2nc3cc(NC(=O)c4ccc(Cl)cc4Cl)ccc3o2)cc1 | > 10 | > 1.05 | > 0.864 |
| CSc1nc2nc(C)c(Cc3cccc(F)c3)c(C)n2n1 | > 100 | 0.152 | 0.297 |
| Clc1ccc(Nc2nc3nonc3nc2Nc2ccc(Cl)c(Cl)c2)cc1Cl | 48.7 | 9.28 | > 12.5 |
| COC(=O)C1=CN(Cc2ccc(OC)cc2)C=C(C(=O)OC)C1c1cccs1 | > 100 | 0.602 | 5.64 |
| FC(F)(F)c1cccc(-c2nc3c(s2)CN(C2CCCC2)CC3)c1 | 73 | 2.95 | 5.37 |
| O=C(Nc1nccs1)c1cc(-c2cccnc2)nc2ccc(Br)cc12 | > 100 | > 10.4 | 1.08 |
| COc1cccc(C=NNC(=O)c2ccccc2O)c1O | 6.64 | 0.969 | 5.38 |
| COc1ccccc1C(=O)N1CCN(Cc2ccc3ccccc3c2)CC1 | > 100 | 4.86 | > 12.5 |
| CC(=O)Nc1ccc2c(c1)C(=O)N(C(CC(C)C)C(=O)NCC(=O)O)[C@@H](CCC(=O)OCc1ccccc1)C(=O)N2 (some centres not stated) | > 10 | > 0.503 | 0.0482 |
| CC(=O)OC1CCC2(C)C(CCC3C2CCC2(C)C3CC(O)C2(O)C(C)=O)C1 (configuration not stated) | > 10 | > 0.826 | > 1.25 |
| NC(=O)NN=C1c2cc(S(=O)(=O)NCc3ccco3)ccc2-c2ccc(S(=O)(=O)NCc3ccco3)cc21 | > 10 | > 1.54 | 1.18 |
| Cc1ccc(Cn2c(N3CCC(C(=O)NCc4cccs4)CC3)nc3ccccc32)cc1 | > 100 | 0.271 | 0.529 |
| FC(F)(F)c1cccc(-c2cc(NCCCn3ccnc3)nc(-c3ccncc3)n2)c1 | > 7.72 | 0.186 | 0.204 |
| C[n+]1c2n(c3ccccc31)N=C(c1ccccc1)C[Se]2 | 23.6 | 0.832 | 0.471 |

| SMILES | CC50 [1] [µM] | EC50 (Plasmodium falciparum [2]) [µM] | EC50 (Plasmodium falciparum [3]) [µM] |
| --- | --- | --- | --- |
| CCN1/C(=C/c2sc3ccc(-c4ccccc4)cc3[n+]2CCO)C=Cc2ccccc21 | > 10 | 1.34 | 0.955 |
| COc1ccc(C2CC(=O)C3=C(C2)NC(C)=C(C(=O)OC(C)C)C3c2ccccc2Br)cc1 (configuration not stated) | > 100 | 0.0285 | 0.062 |
| CCCCCCCc1ccc(-c2nnc(-c3ccc([N+](=O)[O-])cc3)o2)cc1 | > 10 | > 0.459 | > 1.25 |
| CCOC(=O)C1(CC2CCCCO2)CCN(Cc2cccc(C)n2)CC1 (configuration not stated) | > 100 | 1.78 | > 8.37 |
| C=C[C@H]1CN2CC[C@H]1C[C@H]2[C@H](OC(C)=O)c1ccnc2ccccc12 | > 10 | 0.59 | 1.46 |
| C[N+](C)(CCCC(=O)c1ccc(C(=O)CCC[N+](C)(C)Cc2ccccc2Cl)cc1)Cc1ccccc1Cl | > 100 | 0.113 | 0.0213 |
| Cc1ccccc1N=Nc1ccc(NC(=O)c2ccco2)c(C)c1 | 72.2 | 0.272 | 0.402 |
| CCOC(=O)C1=C(C)NC2=C(C(=O)CC(c3ccc(OC)cc3)C2)C1c1cccs1 (configuration not stated) | > 100 | 0.189 | 0.833 |
| COc1ccc(C2=C(c3ccc(OC)cc3)C3(c4ccccc4)C(=O)C2(c2ccccc2)C2C(=O)N(c4ccc(C)cc4)C(=O)C23)cc1 (configuration not stated) | > 100 | 1.49 | > 12.5 |
| CNc1ccccc1C(=O)N(C)CCc1ccccc1 | > 10 | 0.0683 | > 1.25 |
| CCN1CCN(c2cc(C)c3cc(NC(=O)c4cc(=O)c5ccccc5o4)ccc3n2)CC1 | > 10 | 0.386 | 0.498 |
| CC(=O)Oc1cccc(C=c2sc3ncnn3c2=O)c1 | > 10 | > 0.989 | > 1.25 |
| O=C(NN=Cc1cc2ccccc2cc1O)c1cccnc1 | > 10 | 0.946 | 0.871 |
| CCOC(=O)C1=C(C)NC2=C(C(=O)CC(c3ccc(OC)c(OC)c3)C2)C1c1ccccc1Cl (configuration not stated) | > 100 | 0.00874 | 0.00505 |
| O=C1CC(c2nc3ccccc3n2CCCOc2ccccc2)CN1c1ccc(F)cc1 (configuration not stated) | > 10 | 0.239 | > 0.882 |
| COC(=O)C1=C(C(=O)OC)SC(=C2C(=S)C(C)(C)N(C(=O)c3ccc([N+](=O)[O-])cc3)c3ccc(C)cc32)S1 | > 10 | > 1.15 | > 0.371 |
| CCOC(=O)c1cnc2ccc(OC)cc2c1Nc1ccc(N2CCN(C)CC2)cc1 | > 10 | > 1.7 | 1.09 |
| Cc1cccnc1NC(c1ccc([N+](=O)[O-])cc1)c1ccc2cccnc2c1O (configuration not stated) | 15 | 0.214 | 0.14 |
| CN(C(=O)CCNC(=O)Cn1cnc2ccccc2c1=O)C1CCCCC1 | > 10 | > 0.636 | > 1.25 |
| CC(C)[C@@]1(NC(=O)[C@@H]2C[C@@H]3c4cccc5[nH]cc(c45)C[C@H]3N(C)C2)O[C@@]2(O)[C@@H]3CCCN3C(=O)[C@H](CC3CCCCC3)N2C1=O | > 11.4 | 0.768 | 1.16 |
| O=C(Nc1cccc(C(F)(F)F)c1)c1ccc(-c2cccs2)cc1 | 7.13 | 1.94 | 10 |
| CCOC(=O)C1=C(C)NC2=C(C(=O)C(C(=O)OCC)C(c3ccc(OC)cc3)C2)C1c1ccc(OC)c(OC)c1 (configuration not stated) | > 76.6 | 0.177 | 0.275 |
| CCOc1c(Br)cc(C2C(C(=O)OC)=CN(C)C=C2C(=O)OC)cc1OC | > 100 | 0.263 | 0.292 |
| CC1CCCCN1CCCNc1ncc(C(=O)NCCc2ccccc2)c(NCC2CCCCC2)n1 (configuration not stated) | > 10 | 1.2 | 0.602 |
